Reference: ChEMBL document CHEMBL4340530, “Peptide-based covalent inhibitors of MALT1 paracaspase” (Bioorg Med Chem Lett, 2019)
Calls of active or inactive are those of the source. The rule behind the calls is not given here.

What was measured:
[1] = system: OCI-Ly3; experiment: Antiproliferative activity against human OCI-LY3 cells assessed as growth inhibition treated every 48 hrs measured after 96 hrs by CellTiter-Glo assay; type: functional
[2] = biological target: T1, Calpain1/2 (Homo sapiens) (UniProt P17655+P07384); experiment: Inhibition of calpain (unknown origin) at 10 uM relative to control; type: protein assay
T1 sequence (P07384 whole entry, looked up): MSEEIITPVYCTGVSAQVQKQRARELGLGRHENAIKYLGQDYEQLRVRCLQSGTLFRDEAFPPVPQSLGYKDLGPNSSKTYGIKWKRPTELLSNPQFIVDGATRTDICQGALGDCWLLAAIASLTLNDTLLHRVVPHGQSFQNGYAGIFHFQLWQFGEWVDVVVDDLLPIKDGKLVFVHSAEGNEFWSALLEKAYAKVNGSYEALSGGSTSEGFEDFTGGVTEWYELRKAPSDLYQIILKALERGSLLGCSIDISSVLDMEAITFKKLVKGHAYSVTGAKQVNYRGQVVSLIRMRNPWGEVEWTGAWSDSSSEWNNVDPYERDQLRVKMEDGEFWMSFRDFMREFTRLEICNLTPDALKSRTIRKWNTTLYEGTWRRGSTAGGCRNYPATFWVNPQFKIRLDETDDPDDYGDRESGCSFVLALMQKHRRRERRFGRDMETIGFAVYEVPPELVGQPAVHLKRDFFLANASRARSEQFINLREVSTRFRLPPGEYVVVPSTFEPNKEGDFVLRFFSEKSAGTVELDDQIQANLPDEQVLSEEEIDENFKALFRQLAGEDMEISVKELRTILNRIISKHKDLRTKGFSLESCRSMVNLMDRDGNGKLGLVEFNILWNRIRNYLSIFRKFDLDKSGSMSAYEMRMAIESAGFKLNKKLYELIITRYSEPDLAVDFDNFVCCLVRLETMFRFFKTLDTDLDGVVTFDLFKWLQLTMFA
T1 sequence (P17655 whole entry, looked up): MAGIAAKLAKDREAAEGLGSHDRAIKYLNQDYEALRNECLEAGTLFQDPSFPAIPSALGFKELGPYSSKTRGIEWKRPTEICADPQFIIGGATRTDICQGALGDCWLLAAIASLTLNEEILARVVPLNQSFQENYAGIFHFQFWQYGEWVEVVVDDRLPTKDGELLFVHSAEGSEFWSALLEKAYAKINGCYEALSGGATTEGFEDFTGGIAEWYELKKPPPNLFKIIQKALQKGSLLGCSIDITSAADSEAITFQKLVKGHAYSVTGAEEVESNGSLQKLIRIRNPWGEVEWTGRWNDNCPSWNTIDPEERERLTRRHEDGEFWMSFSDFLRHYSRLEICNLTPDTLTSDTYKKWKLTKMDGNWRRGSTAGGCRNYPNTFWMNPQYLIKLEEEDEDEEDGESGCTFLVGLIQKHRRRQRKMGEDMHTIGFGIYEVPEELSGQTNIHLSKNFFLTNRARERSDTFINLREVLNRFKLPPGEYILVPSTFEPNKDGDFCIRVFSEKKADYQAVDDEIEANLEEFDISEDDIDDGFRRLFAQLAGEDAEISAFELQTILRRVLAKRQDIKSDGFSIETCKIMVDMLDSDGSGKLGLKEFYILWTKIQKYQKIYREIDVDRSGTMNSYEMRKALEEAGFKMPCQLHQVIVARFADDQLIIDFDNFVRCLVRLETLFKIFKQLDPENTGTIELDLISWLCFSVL

[3] = biological target: Cathepsin B (Homo sapiens) (UniProt P07858); experiment: Inhibition of cathepsin B (unknown origin) at 10 uM relative to control
[4] = biological target: T2, Cathepsin K (Homo sapiens) (UniProt P43235); experiment: Inhibition of cathepsin K (unknown origin) at 10 uM relative to control
T2 sequence (whole entry): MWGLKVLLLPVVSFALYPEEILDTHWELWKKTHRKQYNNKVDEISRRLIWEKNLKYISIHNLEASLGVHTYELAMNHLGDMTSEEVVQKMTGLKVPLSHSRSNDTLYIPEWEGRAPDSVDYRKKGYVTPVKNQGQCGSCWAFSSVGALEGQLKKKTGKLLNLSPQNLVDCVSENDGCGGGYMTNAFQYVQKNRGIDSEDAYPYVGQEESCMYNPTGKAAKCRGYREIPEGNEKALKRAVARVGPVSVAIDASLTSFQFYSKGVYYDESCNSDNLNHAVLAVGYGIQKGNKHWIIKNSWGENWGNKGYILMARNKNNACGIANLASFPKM

[5] = biological target: Procathepsin L (Homo sapiens) (UniProt P07711); experiment: Inhibition of cathepsin L (unknown origin) at 10 uM relative to control
Procathepsin L (Homo sapiens), sequence (P07711 114-333 limits assumed): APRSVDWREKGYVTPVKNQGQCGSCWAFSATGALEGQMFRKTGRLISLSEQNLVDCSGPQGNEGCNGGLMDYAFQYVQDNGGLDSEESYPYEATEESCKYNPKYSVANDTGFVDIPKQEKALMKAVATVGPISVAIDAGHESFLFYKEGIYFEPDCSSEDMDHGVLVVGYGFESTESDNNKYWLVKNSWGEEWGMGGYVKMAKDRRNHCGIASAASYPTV

[6] = biological target: Cathepsin S (Homo sapiens) (UniProt P25774); experiment: Inhibition of cathepsin S (unknown origin) at 10 uM relative to control
Cathepsin S (Homo sapiens), sequence (P25774 115-331 limits assumed): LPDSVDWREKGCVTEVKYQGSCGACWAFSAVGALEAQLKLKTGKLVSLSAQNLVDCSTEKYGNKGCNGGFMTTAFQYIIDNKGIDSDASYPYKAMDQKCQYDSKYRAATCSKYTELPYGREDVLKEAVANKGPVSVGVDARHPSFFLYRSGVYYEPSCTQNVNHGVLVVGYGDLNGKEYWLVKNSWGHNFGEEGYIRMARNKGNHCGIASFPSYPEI

[7] = biological target: T3, Cathepsin L2 (Homo sapiens) (UniProt O60911); experiment: Inhibition of cathepsin V (unknown origin) at 10 uM relative to control
T3 sequence (whole entry): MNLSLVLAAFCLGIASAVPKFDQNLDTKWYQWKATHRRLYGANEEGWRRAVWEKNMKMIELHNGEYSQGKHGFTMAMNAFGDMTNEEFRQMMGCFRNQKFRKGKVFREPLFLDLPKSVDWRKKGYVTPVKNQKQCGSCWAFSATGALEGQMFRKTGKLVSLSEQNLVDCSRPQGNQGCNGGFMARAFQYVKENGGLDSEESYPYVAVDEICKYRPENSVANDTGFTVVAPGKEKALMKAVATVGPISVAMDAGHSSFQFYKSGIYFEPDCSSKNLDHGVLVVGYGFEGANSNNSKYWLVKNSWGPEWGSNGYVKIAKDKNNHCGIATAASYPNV

[8] = biological target: Prothrombin (Homo sapiens) (UniProt P00734); experiment: Inhibition of thrombin (unknown origin) at 10 uM relative to control
[9] = biological target: T4, Trypsin (Homo sapiens) (UniProt P07477+P07478+P35030); experiment: Inhibition of trypsin (unknown origin) at 10 uM relative to control; type: protein assay
[10] = biological target: Tryptase beta-2 (Homo sapiens) (UniProt P20231); experiment: Inhibition of tryptase b2 (unknown origin) at 10 uM relative to control
Tryptase beta-2 (Homo sapiens), sequence (P20231 whole entry): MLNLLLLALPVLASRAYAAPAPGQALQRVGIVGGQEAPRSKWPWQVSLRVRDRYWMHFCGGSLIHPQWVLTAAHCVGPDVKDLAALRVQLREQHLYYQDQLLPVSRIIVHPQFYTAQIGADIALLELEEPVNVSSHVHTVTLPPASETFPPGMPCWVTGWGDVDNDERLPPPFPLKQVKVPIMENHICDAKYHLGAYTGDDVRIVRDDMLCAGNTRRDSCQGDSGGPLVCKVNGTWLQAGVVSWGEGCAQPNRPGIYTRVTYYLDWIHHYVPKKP

[11] = biological target: T1, Calpain1/2 (Homo sapiens); experiment: Inhibition of calpain (unknown origin) at 1 uM relative to control; type: protein assay
[12] = biological target: Cathepsin B (Homo sapiens) (UniProt P07858); experiment: Inhibition of cathepsin B (unknown origin) at 1 uM relative to control
[13] = biological target: T2, Cathepsin K (Homo sapiens); experiment: Inhibition of cathepsin K (unknown origin) at 1 uM relative to control
[14] = biological target: Cathepsin S (Homo sapiens) (UniProt P25774); experiment: Inhibition of cathepsin S (unknown origin) at 1 uM relative to control
[15] = biological target: T3, Cathepsin L2 (Homo sapiens); experiment: Inhibition of cathepsin V (unknown origin) at 1 uM relative to control
[16] = biological target: Prothrombin (Homo sapiens) (UniProt P00734); experiment: Inhibition of thrombin (unknown origin) at 1 uM relative to control
[17] = biological target: T4, Trypsin (Homo sapiens); experiment: Inhibition of trypsin (unknown origin) at 1 uM relative to control; type: protein assay
[18] = biological target: Tryptase beta-2 (Homo sapiens) (UniProt P20231); experiment: Inhibition of tryptase b2 (unknown origin) at 1 uM relative to control
[19] = biological target: T1, Calpain1/2 (Homo sapiens); experiment: Inhibition of calpain (unknown origin) at 100 nM relative to control; type: protein assay
[20] = biological target: Cathepsin B (Homo sapiens) (UniProt P07858); experiment: Inhibition of cathepsin B (unknown origin) at 100 nM relative to control
[21] = biological target: T2, Cathepsin K (Homo sapiens); experiment: Inhibition of cathepsin K (unknown origin) at 100 nM relative to control
[22] = biological target: Cathepsin S (Homo sapiens) (UniProt P25774); experiment: Inhibition of cathepsin S (unknown origin) at 100 nM relative to control
[23] = biological target: Prothrombin (Homo sapiens) (UniProt P00734); experiment: Inhibition of thrombin (unknown origin) at 100 nM relative to control
[24] = biological target: T4, Trypsin (Homo sapiens); experiment: Inhibition of trypsin (unknown origin) at 100 nM relative to control; type: protein assay
[25] = biological target: Tryptase beta-2 (Homo sapiens) (UniProt P20231); experiment: Inhibition of tryptase b2 (unknown origin) at 100 nM relative to control
[26] = biological target: T5, Mucosa-associated lymphoid tissue lymphoma translocation protein 1 (Homo sapiens) (UniProt Q9UDY8); experiment: Inhibition of MALT1 in human OCI-LY3 cells assessed as reduction in Relb cleavage at 20 uM by Western blot analysis; type: cell-based
T5 sequence (whole entry): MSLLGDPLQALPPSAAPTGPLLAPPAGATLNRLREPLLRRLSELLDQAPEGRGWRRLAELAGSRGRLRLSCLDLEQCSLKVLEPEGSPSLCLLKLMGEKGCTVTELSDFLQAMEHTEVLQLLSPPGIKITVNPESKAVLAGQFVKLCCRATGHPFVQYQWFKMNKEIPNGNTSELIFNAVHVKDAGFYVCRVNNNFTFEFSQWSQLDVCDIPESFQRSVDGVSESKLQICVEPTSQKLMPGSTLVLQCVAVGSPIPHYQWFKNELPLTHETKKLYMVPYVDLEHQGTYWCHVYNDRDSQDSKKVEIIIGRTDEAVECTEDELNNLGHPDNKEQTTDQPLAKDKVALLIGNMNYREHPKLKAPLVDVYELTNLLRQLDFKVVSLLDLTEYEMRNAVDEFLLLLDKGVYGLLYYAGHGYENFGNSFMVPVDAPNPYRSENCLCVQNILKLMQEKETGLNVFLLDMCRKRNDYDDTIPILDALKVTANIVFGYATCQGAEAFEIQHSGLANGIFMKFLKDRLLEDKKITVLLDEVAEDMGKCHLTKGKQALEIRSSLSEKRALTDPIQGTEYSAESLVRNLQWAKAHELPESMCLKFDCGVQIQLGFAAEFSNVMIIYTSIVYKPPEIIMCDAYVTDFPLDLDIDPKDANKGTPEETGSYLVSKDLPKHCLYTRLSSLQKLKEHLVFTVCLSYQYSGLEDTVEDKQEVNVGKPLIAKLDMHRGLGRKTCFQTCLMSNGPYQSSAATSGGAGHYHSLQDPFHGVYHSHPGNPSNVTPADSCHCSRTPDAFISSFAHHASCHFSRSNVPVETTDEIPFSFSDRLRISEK

[27] = biological target: T6, Mucosa-associated lymphoid tissue lymphoma translocation protein 1 (Homo sapiens, UniProt Q9UDY8); experiment: Inhibition of recombinant LZ-fused MALT1 (340 to 789 residues) (unknown origin) using Ac-LRSR-AMC as substrate by fluorescence assay
T6 sequence (Q9UDY8 whole entry): T5 sequence (whole entry)

[28] = system: OCI-Ly1; experiment: Antiproliferative activity against human OCI-LY1 cells up to 20 uM; type: functional, cell-based
[29] = biological target: Procathepsin L (Homo sapiens) (UniProt P07711); experiment: Inhibition of cathepsin L (unknown origin) at 1 uM relative to control
[30] = biological target: Procathepsin L (Homo sapiens) (UniProt P07711); experiment: Inhibition of cathepsin L (unknown origin) at 100 nM relative to control
[31] = biological target: T3, Cathepsin L2 (Homo sapiens); experiment: Inhibition of cathepsin V (unknown origin) at 100 nM relative to control

| GI50 [1] [nM] | inhibition [2] [%] | inhibition [3] [%] | inhibition [4] [%] | inhibition [5] [%] | inhibition [6] [%] | inhibition [7] [%] | inhibition [8] [%] | inhibition [9] [%] | inhibition [10] [%] | inhibition [11] [%] | inhibition [12] [%] | inhibition [13] [%] | inhibition [14] [%] | inhibition [15] [%] | inhibition [16] [%] | inhibition [17] [%] | inhibition [18] [%] | inhibition [19] [%] | inhibition [20] [%] | Structure (SMILES) | other results |
| --- | --- | --- | --- | --- | --- | --- | --- | --- | --- | --- | --- | --- | --- | --- | --- | --- | --- | --- | --- | --- | --- |
| 460 | 112 | 98.2 | 98.9 | 36.2 | 99.7 | 86.3 | 75.8 | 93.7 | 31 | 76 | 79.7 | 98.1 | 85.7 | 32.1 | 19.4 | 91 | 3.4 | 25.9 | 10.7 | CC(C)[C@H](NC(=O)c1ccc(Br)cc1)C(=O)N1CCCC[C@H]1C(=O)N[C@@H](CCCNC(=N)N)C(=O)CF | inhibition [21]: 68.7%; inhibition [22]: 82.2%; inhibition [23]: 4.6%; inhibition [24]: 65%; inhibition [25]: 1% |
| > 20000 | – | – | – | – | – | – | – | – | – | – | – | – | – | – | – | – | – | – | – | CCC(=O)[C@H](CCCNC(=N)N)NC(=O)[C@@H]1CCCN1C(=O)[C@@H](NC(=O)[C@H](CC(C)C)NC(=O)OCc1ccccc1)C(C)C | inhibition [26]: inactive; Ki [27]: > 5000 nM; Activity [28]: inactive |
| 150 | 105 | 100 | 89.7 | 49.4 | 100 | 94.1 | 41.8 | 94.2 | 47.5 | 99.8 | 99.5 | 38.3 | 100 | 58.4 | 1.1 | 92.6 | 15.3 | 98.5 | 88.7 | CC(C)[C@H](NC(=O)c1ccc(Br)cc1)C(=O)N[C@@H](CO)C(=O)N[C@@H](CCCNC(=N)N)C(=O)CF | inhibition [29]: 11.2%; inhibition [21]: 28.8%; inhibition [30]: 13%; inhibition [22]: 99%; inhibition [31]: 29.8%; inhibition [23]: 2.3%; inhibition [24]: 64%; inhibition [25]: 6.5% |
